Data on 22 compounds can be found in patent publication US20210214375A1 (LUNDBECK LA JOLLA RESEARCH CENTER, INC., priority 2017, published 2021).

Read-outs that look alike come from different tables or passages of the source.

Holding throughout (format): biochemical
The target of one test is T1, MGLL (Mus musculus, UniProt O35678).
T1 construct: Brain; from tissue; host or cells: mouse brain proteome
T1 sequence (O35678 1-303): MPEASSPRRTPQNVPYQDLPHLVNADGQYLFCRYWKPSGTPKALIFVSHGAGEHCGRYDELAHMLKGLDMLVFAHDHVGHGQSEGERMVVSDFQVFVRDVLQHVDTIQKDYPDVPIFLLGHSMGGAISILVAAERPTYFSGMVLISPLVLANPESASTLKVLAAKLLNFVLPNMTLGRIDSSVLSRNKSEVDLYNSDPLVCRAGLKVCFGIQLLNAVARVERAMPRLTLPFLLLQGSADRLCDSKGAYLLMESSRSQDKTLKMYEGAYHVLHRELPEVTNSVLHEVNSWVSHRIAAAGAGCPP
Description: In vitro competitive activity-based protein profiling, mouse brain proteome. Here is the method:
[Worded in the source for another species; this species is reported under the same test.] (§1) Proteomes (human prefrontal cortex or cell membrane fractions) (50 μL, 1.0 mg/mL total protein concentration) were preincubated with varying concentrations of inhibitors at 37° C. After 30 min, FP—Rh or HT-01 (1.0 μL, 50 μM in DMSO) was added and the mixture was incubated for another 30 min at room temperature. Reactions were quenched with SDS loading buffer (15 μL-4×) and run on SDS-PAGE.

The next test deals with T2, ABHD6 (Mus musculus, UniProt Q8R2Y0).
T2 construct: Brain; from tissue; host or cells: mouse brain proteome
T2 sequence (Q8R2Y0 1-336): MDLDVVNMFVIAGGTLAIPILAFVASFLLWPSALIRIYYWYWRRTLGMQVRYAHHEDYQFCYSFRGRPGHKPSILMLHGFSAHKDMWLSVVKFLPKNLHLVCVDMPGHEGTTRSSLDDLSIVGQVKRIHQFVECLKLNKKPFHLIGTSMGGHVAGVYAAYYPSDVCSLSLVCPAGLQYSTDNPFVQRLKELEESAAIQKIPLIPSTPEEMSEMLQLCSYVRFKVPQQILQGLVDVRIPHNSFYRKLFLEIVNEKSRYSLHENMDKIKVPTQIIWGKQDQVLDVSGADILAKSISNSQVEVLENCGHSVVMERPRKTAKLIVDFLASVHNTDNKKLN
Description: In vitro competitive activity-based protein profiling, mouse brain proteome, ABHD6. To be noted: mouse. The protocol: [Worded in the source for another target; this target is reported under the same test.] as §1

Another test concerns the target T3, MAGL (Homo sapiens, UniProt Q99685).
T3 construct: Proteomes (human prefrontal cortex or cell membrane fractions); from tissue
T3 sequence (Q99685 1-303): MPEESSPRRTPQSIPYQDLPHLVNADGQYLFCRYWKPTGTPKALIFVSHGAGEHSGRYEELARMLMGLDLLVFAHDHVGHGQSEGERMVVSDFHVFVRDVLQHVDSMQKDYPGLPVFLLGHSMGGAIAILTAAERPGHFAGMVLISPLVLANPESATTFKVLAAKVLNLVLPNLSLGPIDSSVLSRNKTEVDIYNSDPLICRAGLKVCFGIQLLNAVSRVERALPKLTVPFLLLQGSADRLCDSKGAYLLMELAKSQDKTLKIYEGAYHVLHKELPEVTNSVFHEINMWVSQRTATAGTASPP
Description: In vitro competitive activity-based protein profiling (gel-based, FP-Rh or HT-01 probe). The protocol: Compounds are tested to assess their MAGL and serine hydrolase activity using the following in vitro and in vivo assays.
as §1

Setting [1] is: PC3 proteome, read-out: IC50 MGLL PC3 (Human).
Where [2] appears, read: PFC (prefrontal cortex) proteome.

Turning to `O=C(OC(C(F)(F)F)C(F)(F)F)N1CCC2(CCCN2C(=O)c2ccc(Cl)cc2)CC1` [Example 13, 1,1,1,3,3,3-Hexafluoropropan-2-yl 1-(4-chlorobenzoyl)-1,8-diazaspiro[4.5]decane-8-carboxylate], the results for the IC50 at MGLL and at ABHD6 were less than 0.1 µM and 0.1 to 1 µM, respectively.

For the compound `CC(=O)N1CCCc2cccc(CN3CC4(CCN(C(=O)OC(C(F)(F)F)C(F)(F)F)CC4)C3)c21` [Example 15, 1,1,1,3,3,3-Hexafluoropropan-2-yl 2-((1-acetyl-1,2,3,4-tetrahydroquinolin-8-yl)methyl)-2,7-diazaspiro[3.5]nonane-7-carboxylate], the IC50 (usually the concentration needed to halve the response being measured) at MGLL was less than 0.1 µM; at ABHD6, 0.1 to 1 µM.

Regarding `CCN1CCCc2cccc(CN3CC4(CCN(C(=O)OC(C(F)(F)F)C(F)(F)F)CC4)C3)c21` [Example 16, 1,1,1,3,3,3-Hexafluoropropan-2-yl 2-((1-ethyl-1,2,3,4-tetrahydroquinolin-8-yl)methyl)-2,7-diazaspiro[3.5]nonane-7-carboxylate], the results for the IC50 on MGLL and on ABHD6 were less than 0.1 µM and 0.1 to 1 µM, respectively.

On to `CCN1CCCc2cccc(CN3CCC4(CC3)CN(C(=O)OC(C(F)(F)F)C(F)(F)F)C4)c21` [Example 31, 1,1,1,3,3,3-Hexafluoropropan-2-yl 7-((1-ethyl-1,2,3,4-tetrahydroquinolin-8-yl)methyl)-2,7-diazaspiro[3.5]nonane-2-carboxylate], for which the figures for the IC50 at MGLL and on ABHD6 were more than 1 µM and 0.1 to 1 µM, respectively.

In the case of `O=C(OC(C(F)(F)F)C(F)(F)F)N1CC2(CCN(Cc3c(N4CC5COCC5C4)cccc3C(F)(F)F)CC2)C1` (stereo not drawn) [Example 33], the IC50 on MGLL and on ABHD6 was 0.1 to 1 µM in each case.

As to `O=C(OC(C(F)(F)F)C(F)(F)F)N1CCC2(CC1)CN(Cc1ccc(Cl)cc1N1CCCC1)C2` [Example 34], the IC50 at MGLL was less than 0.1 µM; at ABHD6 it was 0.1 to 1 µM.

Regarding `O=C(OC(C(F)(F)F)C(F)(F)F)N1CCC2(CC1)CN(Cc1ccc(C(F)(F)F)cc1N1CCCCC1)C2` [Example 35], the IC50 on MGLL is less than 0.1 µM; on ABHD6, 0.1 to 1 µM.

For `O=C(OC(C(F)(F)F)C(F)(F)F)N1CCC2(CC1)CN(Cc1ccc(C(F)(F)F)cc1N1CCOCC1)C2` [Example 36, 1,1,1,3,3,3-Hexafluoropropan-2-yl 2-(2-morpholino-4-(trifluoromethyl)benzyl)-2,7-diazaspiro[3.5]nonane-7-carboxylate], the values for the IC50 at MGLL and at ABHD6 were less than 0.1 µM and 0.1 to 1 µM, respectively.

With `O=C(O)C1CCN(c2cc(F)ccc2CN2CC3(CCN(C(=O)OC(C(F)(F)F)C(F)(F)F)CC3)C2)CC1` [Example 123, 1-(5-Fluoro-2-((7-(((1,1,1,3,3,3-hexafluoropropan-2-yl)oxy)carbonyl)-2,7-diazaspiro[3.5]nonan-2-yl)methyl)phenyl) piperidine-4-carboxylic acid], at MAGL (setting [1]), the IC50 is 0.1 to 1 µM.

With `O=C(O)c1ccc(CN2CC3(CCN(C(=O)OC(C(F)(F)F)C(F)(F)F)CC3)C2)cc1C(F)(F)F` [Example 131, 4-((7-(((1,1,1,3,3,3-Hexafluoropropan-2-yl)oxy)carbonyl)-2,7-diazaspiro[3.5]nonan-2-yl)methyl)-2-(trifluoromethyl) benzoic acid], on MAGL (setting [1]), the IC50 was in the range of 0.1 to 1 µM.

In the case of `CN(Cc1ccc(Cl)cc1N1CCC(C(=O)O)CC1)C1(C)CCN(C(=O)OC(C(F)(F)F)C(F)(F)F)CC1` [Example 135, 1-(5-Chloro-2-(((1-(((1,1,1,3,3,3-hexafluoropropan-2-yl)oxy)carbonyl)-4-methylpiperidin-4-yl)(methyl)amino)methyl)phenyl) piperidine-4-carboxylic acid], the “% Inh MGLL PFC (Human, μM)” value on MAGL (setting [2]) is “### (### is ≥ 75%)”.

Turning to `CN(Cc1ccc(C(F)(F)F)cc1OCC(=O)O)C1(C)CCN(C(=O)OC(C(F)(F)F)C(F)(F)F)CC1` [Example 136, 2-(2-(((1-(((1,1,1,3,3,3-Hexafluoropropan-2-yl)oxy)carbonyl)-4-methylpiperidin-4-yl)(methyl)amino)methyl)-5-(trifluoromethyl)phenoxy)acetic acid], at MAGL (setting [1]), the IC50 was less than 0.1 µM. Besides, at MAGL (setting [2]), the “% Inh MGLL PFC (Human, μM)” value was “### (### is ≥ 75%)”.

As to `CN(Cc1cc(C(F)(F)F)cc(C2(C(=O)O)CCCC2)c1)C1(C)CCN(C(=O)OC(C(F)(F)F)C(F)(F)F)CC1` [Example 138, 1-(3-{[(1-{[(1,1,1,3,3,3-Hexafluoropropan-2-yl)oxy]carbonyl}-4-methylpiperidin-4-yl)(methyl)amino]methyl}-5-(trifluoromethyl)phenyl)cyclopentane-1-carboxylic acid], the “% Inh MGLL PFC (Human, μM)” value on MAGL (setting [2]) is listed as “### (### is ≥ 75%)”. The concentration for half-maximal inhibition (IC50) on MAGL (PFC (prefrontal cortex) proteome, read-out: IC50 MGLL PFC (Human)) was less than 0.1 µM.

In the case of `CC(C)(C#Cc1cc(CN2CCCC23CCN(C(=O)OC(C(F)(F)F)C(F)(F)F)CC3)cc(C(F)(F)F)c1)C(=O)O` [Example 140, 4-{3-[(8-{[(1,1,1,3,3,3-Hexafluoropropan-2-yl)oxy]carbonyl}-1,8-dazaspiro[4.5]decan-1-yl)methyl]-5-(trifluoromethyl)phenyl]-2,2-dimethylbut-3-ynoic acid], the IC50 on MAGL (setting [1]) was less than 0.1 µM.

Take `CN(Cc1cccc(F)c1C1(C(=O)O)CCCC1)C1(C)CCN(C(=O)OC(C(F)(F)F)C(F)(F)F)CC1` [Example 144, 1-(2-Fluoro-6-{[(1-{[(1,1,1,3,3,3-hexafluoropropan-2-yl)oxy]carbonyl}-4-methylpiperidin-4-yl)(methyl)amino]methyl}phenyl) cyclopentane-1-carboxylic acid]: on MAGL (setting [1]), the IC50 is less than 0.1 µM. Besides, on MAGL (setting [2]), the “% Inh MGLL PFC (Human, μM)” value is “### (### is ≥ 75%)”.

Turning to `CC(C)(C#Cc1ccccc1CN1CCCC12CCN(C(=O)OC(C(F)(F)F)C(F)(F)F)CC2)C(=O)O` [Example 145, 4-{2-[(8-{[(1,1,1,3,3,3-Hexafluoropropan-2-yl)oxy]carbonyl}-1,8-diazaspiro[4.5]decan-1-yl)methyl]phenyl]-2,2-dimethylbut-3-ynoic acid], at MAGL (setting [1]), the concentration for half-maximal inhibition (IC50) lay within 0.1 to 1 µM. Further, the “% Inh MGLL PFC (Human, μM)” value at MAGL (setting [2]) was “### (### is ≥ 75%)”.

As for `CC1(OCc2ccc(Cl)cc2C2(C(=O)O)CCCC2)CCN(C(=O)OC(C(F)(F)F)C(F)(F)F)CC1` [Example 146, 1-(5-Chloro-2-{[(1-{[(1,1,1,3,3,3-hexafluoropropan-2-yl)oxy]carbonyl}-4-methylpiperidin-4-yl)oxy]methyl}phenyl) cyclopentane-1-carboxylic acid], the IC50 on MAGL (setting [1]) was less than 0.1 µM. The “% Inh MGLL PFC (Human, μM)” value on MAGL (setting [2]) is “### (### is ≥ 75%)”.

Take `CN(Cc1ccc(C(F)(F)F)cc1N1CCC(N2CCC[C@H]2C(=O)O)CC1)C1(C)CCN(C(=O)OC(C(F)(F)F)C(F)(F)F)CC1` [Example 163, (1-(2-(((1-(((1,1,1,3,3,3-Hexafluoropropan-2-yl)oxy)carbonyl)-4-methylpiperidin-4-yl)(methyl)amino)methyl)-5-(trifluoromethyl)phenyl)piperidin-4-yl)-L-proline]: the “% Inh MGLL PC3 (Human, μM)” value on MAGL (PC3 proteome) is “### (### is ≥ 75%)”. Further, the “% Inh MGLL Brain (Mouse, μM)” value on MGLL is “### (### is ≥ 75%)”.

For `O=C(O)C1CCN(c2cc(CN3CCC4(CC3)CCN(C(=O)OC(C(F)(F)F)C(F)(F)F)C4)ccc2C(F)(F)F)CC1` [Example 221], the IC50 at MAGL (setting [1]) is less than 0.1 µM.

In the case of `O=C(O)C1CCN(c2cc(S(F)(F)(F)(F)F)ccc2CN2CCC3(CC2)CCN(C(=O)OC(C(F)(F)F)C(F)(F)F)C3)CC1` [Example 222, 1-(2-((2-(((1,1,1,3,3,3-Hexafluoropropan-2-yl)oxy)carbonyl)-2,8-diazaspiro[4.5]decan-8-yl)methyl)-5-(pentafluoro-l6-sulfaneyl)phenyl) piperidine-4-carboxylic acid], the IC50 at MAGL (setting [1]) was in the range of 0.1 to 1 µM.

On to `O=C(O)C1CCN(c2cc(CN3CCC4(CC3)CCN(C(=O)OC(C(F)(F)F)C(F)(F)F)C4)cc(S(F)(F)(F)(F)F)c2)CC1` [Example 226, 1-(3-((2-(((1,1,1,3,3,3-Hexafluoropropan-2-yl)oxy)carbonyl)-2,8-diazaspiro[4.5]decan-8-yl)methyl)-5-(pentafluoro-l6-sulfaneyl)phenyl) piperidine-4-carboxylic acid], for which the IC50 on MAGL (setting [1]) was less than 0.1 µM.

For `CC1(OCc2cc(N3CCC(C(=O)O)CC3)cc(C(F)(F)F)c2)CCN(C(=O)OC(C(F)(F)F)C(F)(F)F)CC1` [Example 227], at MAGL (setting [1]), the IC50 is less than 0.1 µM.
